This note sets out measurements from US9546141B2, “Salts” (Sprout Pharmaceuticals, Inc., priority 2008, dated 2017).

The nature of data set [1]: Solubility of the crystalline salt forms in water. The format is physicochemical. Particulars: shaken 2 hours, filtered, UV-spectroscopy. On the procedure: Solubility of the different crystalline salt forms in water was determined by adding […] of compound into 5 ml of water at room temperature. The mixture was vigorously shaken for 2 hours at room temperature. Afterwards the undissolved solid was removed by filtering through a 0.45 μm PTFE filter, in the filtrate the dissolved amount of compound was determined by UV-spectroscopy.

The nature of data set [2]: Hygroscopicity (IGAsorp water sorption monitor). Format: physicochemical. The settings on record: room temperature. On the procedure: IGAsorp water sorption monitor from Hiden Isochema was used for the analysis of the hygroscopical behaviour at room temperature. • humidity profile: from 10-90% r.h. in steps of 10%, sorption as well as desorption profiles were registered • weight-in quantity: 10-20 mg

On to `O=C1NS(=O)(=O)c2ccccc21.O=c1[nH]c2ccccc2n1CCN1CCN(c2cccc(C(F)(F)F)c2)CC1` [XI, 1-[2-(4-(3-trifluoro-methyl-phenyl)piperazin-1-yl)ethyl]-2,3-dihydro-1H-benzimidazol-2-one sacharinate], for which the “solubility in water at room temperature” value in data set [1] is 300 µg/mL. Also, in data set [2], the “hygroscopicity expressed in the uptake of water in the range of 10-90% relative humidity” value (from here on “hygroscopicity … of 10-90% relative humidity”) was found to be 0.24%.
Consider `Cc1ccc(S(=O)(=O)O)cc1.O=c1[nH]c2ccccc2n1CCN1CCN(c2cccc(C(F)(F)F)c2)CC1` [XXX, 1-[2-(4-(3-trifluoro-methyl-phenyl)piperazin-1-yl)ethyl]-2,3-dihydro-1H-benzimidazol-2-one tosylate], for which the “solubility in water at room temperature” value in data set [1] came out at 90 µg/mL. The “hygroscopicity … of 10-90% relative humidity” value in data set [2] came out at 0.25%.
For `CC1(C)C2CCC1(CS(=O)(=O)O)C(=O)C2.O=c1[nH]c2ccccc2n1CCN1CCN(c2cccc(C(F)(F)F)c2)CC1` [XXXII, 1-[2-(4-(3-trifluoro-methyl-phenyl)piperazin-1-yl)ethyl]-2,3-dihydro-1H-benzimidazol-2-one camphorsulfonate], in that order: 700 µg/mL and 0.13%.
For `CCS(=O)(=O)O.O=c1[nH]c2ccccc2n1CCN1CCN(c2cccc(C(F)(F)F)c2)CC1` [XV, 1-[2-(4-(3-trifluoro-methyl-phenyl)piperazin-1-yl)ethyl]-2,3-dihydro-1H-benzimidazol-2-one ethansulfonate], in that order: 1300 µg/mL and 0.32%.
For `CS(=O)(=O)O.O=c1[nH]c2ccccc2n1CCN1CCN(c2cccc(C(F)(F)F)c2)CC1` [VII, 1-[2-(4-(3-trifluoro-methyl-phenyl)piperazin-1-yl)ethyl]-2,3-dihydro-1H-benzimidazol-2-one mesylate], in that order: 1100 µg/mL and 3.4%.
On to `O=C(O)C(=O)O.O=c1[nH]c2ccccc2n1CCN1CCN(c2cccc(C(F)(F)F)c2)CC1` [IX, 1-[2-(4-(3-trifluoro-methyl-phenyl)piperazin-1-yl)ethyl]-2,3-dihydro-1H-benzimidazol-2-one oxalate], for which the “solubility in water at room temperature” value in data set [1] worked out at 1700 µg/mL. Moreover, the “hygroscopicity … of 10-90% relative humidity” value in data set [2] is given as 0.7%.
On the same counts, the results for `O=C(O)CO.O=c1[nH]c2ccccc2n1CCN1CCN(c2cccc(C(F)(F)F)c2)CC1` [XXXIII, 1-[2-(4-(3-trifluoro-methyl-phenyl)piperazin-1-yl)ethyl]-2,3-dihydro-1H-benzimidazol-2-one glycolate] are 500 µg/mL and 0.20%.
On the same counts, the results for `O=C(O)/C=C/C(=O)O.O=c1[nH]c2ccccc2n1CCN1CCN(c2cccc(C(F)(F)F)c2)CC1` [XXXI, 1-[2-(4-(3-trifluoro-methyl-phenyl)piperazin-1-yl)ethyl]-2,3-dihydro-1H-benzimidazol-2-one fumarate] are 500 µg/mL and 0.28%.
For `O=S(=O)(O)c1ccccc1.O=c1[nH]c2ccccc2n1CCN1CCN(c2cccc(C(F)(F)F)c2)CC1` [VIII, 1-[2-(4-(3-trifluoro-methyl-phenyl)piperazin-1-yl)ethyl]-2,3-dihydro-1H-benzimidazol-2-one besylate], in data set [1], the “solubility in water at room temperature” value was 100 µg/mL. Moreover, the “hygroscopicity … of 10-90% relative humidity” value in data set [2] is reported as 0.15%.
